# Laboratory results published in ChEMBL document CHEMBL1201862, “PubChem BioAssay data set” (2004).
# Active and inactive are the calls of the source.
# Assays:
# [1] = biological target: T1, Corticotropin-releasing factor receptor 2/Corticotropin-releasing factor-binding protein (Homo sapiens, UniProt P24387+Q13324); assay: Dose Response confirmation of uHTS hits for small molecule antagonists of the CRF-binding protein and CRF-R2 receptor complex.; type: functional; details: read-out: IC50_Mean
# T1 sequence (Q13324 whole entry): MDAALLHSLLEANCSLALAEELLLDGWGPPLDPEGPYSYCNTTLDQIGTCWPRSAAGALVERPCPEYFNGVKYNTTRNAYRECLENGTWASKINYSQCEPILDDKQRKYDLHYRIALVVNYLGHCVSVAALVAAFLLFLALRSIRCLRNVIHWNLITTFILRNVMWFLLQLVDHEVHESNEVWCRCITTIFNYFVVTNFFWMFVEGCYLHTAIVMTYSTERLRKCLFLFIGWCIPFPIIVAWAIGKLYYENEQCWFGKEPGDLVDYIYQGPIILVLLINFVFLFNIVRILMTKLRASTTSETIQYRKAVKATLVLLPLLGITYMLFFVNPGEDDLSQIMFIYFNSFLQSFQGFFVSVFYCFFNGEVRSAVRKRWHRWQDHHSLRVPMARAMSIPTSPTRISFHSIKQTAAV
# T1 sequence (P24387 whole entry): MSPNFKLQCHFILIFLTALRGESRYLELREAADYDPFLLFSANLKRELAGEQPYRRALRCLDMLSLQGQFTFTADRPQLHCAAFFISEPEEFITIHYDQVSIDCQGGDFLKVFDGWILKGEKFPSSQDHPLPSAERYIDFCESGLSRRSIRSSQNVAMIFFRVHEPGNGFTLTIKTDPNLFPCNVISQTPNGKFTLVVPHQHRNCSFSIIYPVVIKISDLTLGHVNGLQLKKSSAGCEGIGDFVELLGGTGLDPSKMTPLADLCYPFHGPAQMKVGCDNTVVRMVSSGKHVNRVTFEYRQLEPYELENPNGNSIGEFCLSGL
# [2] = biological target: T1, Corticotropin-releasing factor receptor 2/Corticotropin-releasing factor-binding protein; assay: activators of CRF receptor 2 with binding protein – uHTS hits, confirmation (AID 602473); type: functional; details: read-out: EC50_Mean
# [3] = blockers of CRF-binding protein–CRF-R2 complex – cell-based, uHTS hits, 384-well, dose response (AID 651639); type: functional, Homo sapiens; details: read-out: IC50_Mean
# [4] = biological target: Adenosylmethionine-8-amino-7-oxononanoate aminotransferase (Mycobacterium tuberculosis, UniProt P9WQ81); assay: Mycobacterium tuberculosis BioA enzyme inhibitor Measured in Biochemical System Using Plate Reader - 2163-02_Inhibitor_Dose_CherryPick_Activity.; type: functional, Mycobacterium tuberculosis UT205
# Sequence of Adenosylmethionine-8-amino-7-oxononanoate aminotransferase (P9WQ81 whole entry): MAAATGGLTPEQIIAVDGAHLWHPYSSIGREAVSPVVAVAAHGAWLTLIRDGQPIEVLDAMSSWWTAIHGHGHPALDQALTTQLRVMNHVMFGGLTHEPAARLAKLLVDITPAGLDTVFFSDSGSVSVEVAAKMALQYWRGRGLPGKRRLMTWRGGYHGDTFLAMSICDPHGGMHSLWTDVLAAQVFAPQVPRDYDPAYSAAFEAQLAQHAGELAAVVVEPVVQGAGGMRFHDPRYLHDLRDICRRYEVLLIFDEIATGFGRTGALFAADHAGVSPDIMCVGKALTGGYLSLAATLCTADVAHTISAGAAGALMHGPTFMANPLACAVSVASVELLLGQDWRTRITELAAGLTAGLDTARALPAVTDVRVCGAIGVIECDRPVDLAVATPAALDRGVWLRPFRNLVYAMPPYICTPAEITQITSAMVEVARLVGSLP
# [5] = biological target: T2, Polyadenylate-binding protein 1 (Homo sapiens, UniProt P11940); assay: MLLE binding blockers, Cy5 peptide tracer – biochemical, fluorescence polarization, Cy5-PAM2 peptide, secondary, miRNA deadenylation inhibitor project, dose response (AID 602260); type: functional; details: read-out: IC50_Mean
# T2 sequence (P11940 whole entry, the tested form may be a part): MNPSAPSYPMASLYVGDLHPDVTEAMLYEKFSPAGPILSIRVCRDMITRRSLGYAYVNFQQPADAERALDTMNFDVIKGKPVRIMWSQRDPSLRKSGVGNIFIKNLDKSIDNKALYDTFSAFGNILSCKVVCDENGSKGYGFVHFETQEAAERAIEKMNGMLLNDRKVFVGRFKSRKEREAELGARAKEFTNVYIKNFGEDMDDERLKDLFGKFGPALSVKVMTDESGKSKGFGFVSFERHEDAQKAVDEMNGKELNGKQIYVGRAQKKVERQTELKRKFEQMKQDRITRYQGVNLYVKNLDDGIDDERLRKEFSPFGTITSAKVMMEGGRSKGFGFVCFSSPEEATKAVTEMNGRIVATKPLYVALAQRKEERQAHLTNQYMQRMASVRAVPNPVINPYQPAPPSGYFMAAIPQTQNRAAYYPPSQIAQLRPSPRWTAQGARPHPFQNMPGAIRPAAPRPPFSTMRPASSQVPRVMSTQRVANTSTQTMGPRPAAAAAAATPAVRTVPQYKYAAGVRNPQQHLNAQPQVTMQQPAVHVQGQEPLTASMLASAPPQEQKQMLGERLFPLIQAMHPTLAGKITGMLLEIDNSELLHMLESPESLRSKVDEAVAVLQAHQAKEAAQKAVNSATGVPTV
# [6] = biological target: T2, Polyadenylate-binding protein 1; assay: MLLE domain peptide-binding blockers, IC50 – biochemical, fluorescence polarization, FITC-PAM2 peptide, dose response (AID 602259); type: functional; details: read-out: IC50_Mean
# INS1 = assay: INS-1E survival protection against cytokine death – cell-based, luminescence, retest, dose response (AID 449756); type: functional; details: Rattus norvegicus;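 note: cell death triggered by IL-1 beta plus TNF-alpha plus IFN-gamma mixture; protective hits raise ATP signal compared with cytokine alone wells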
# Protein Wnt-3a = Protein Wnt-3a (Mus musculus, UniProt P27467); assay: antagonism of Wnt3a pathway luciferase reporter – Wnt-LIGHT cells, luminescence, selectivity assay for Gli-SUFU antagonist project, dose response (AID 651570); type: functional; details: read-out: IC50_Mean;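 note: Wnt-LIGHT reporter cells stimulated with conditioned medium from Wnt3a-producing cells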
# Sequence of Protein Wnt-3a (P27467 whole entry): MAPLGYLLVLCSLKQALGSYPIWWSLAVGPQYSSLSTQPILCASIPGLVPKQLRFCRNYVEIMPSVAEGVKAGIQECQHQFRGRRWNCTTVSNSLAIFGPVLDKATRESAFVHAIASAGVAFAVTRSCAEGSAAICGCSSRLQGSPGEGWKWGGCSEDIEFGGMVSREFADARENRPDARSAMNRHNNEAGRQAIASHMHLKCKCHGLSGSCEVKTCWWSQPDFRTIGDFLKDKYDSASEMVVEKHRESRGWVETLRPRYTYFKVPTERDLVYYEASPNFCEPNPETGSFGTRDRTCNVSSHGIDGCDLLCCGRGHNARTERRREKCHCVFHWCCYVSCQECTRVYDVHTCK
# [7] = biological target: Nuclear receptor subfamily 5 group A member 2 (Homo sapiens, UniProt O00482); type: functional, cell-based;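 note: HEK293T cells transfected with LRH-1 and a StAR promoter luciferase reporter; potency for inhibitors that lower LRH-1 driven reporter light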
# Sequence of Nuclear receptor subfamily 5 group A member 2 (O00482 whole entry): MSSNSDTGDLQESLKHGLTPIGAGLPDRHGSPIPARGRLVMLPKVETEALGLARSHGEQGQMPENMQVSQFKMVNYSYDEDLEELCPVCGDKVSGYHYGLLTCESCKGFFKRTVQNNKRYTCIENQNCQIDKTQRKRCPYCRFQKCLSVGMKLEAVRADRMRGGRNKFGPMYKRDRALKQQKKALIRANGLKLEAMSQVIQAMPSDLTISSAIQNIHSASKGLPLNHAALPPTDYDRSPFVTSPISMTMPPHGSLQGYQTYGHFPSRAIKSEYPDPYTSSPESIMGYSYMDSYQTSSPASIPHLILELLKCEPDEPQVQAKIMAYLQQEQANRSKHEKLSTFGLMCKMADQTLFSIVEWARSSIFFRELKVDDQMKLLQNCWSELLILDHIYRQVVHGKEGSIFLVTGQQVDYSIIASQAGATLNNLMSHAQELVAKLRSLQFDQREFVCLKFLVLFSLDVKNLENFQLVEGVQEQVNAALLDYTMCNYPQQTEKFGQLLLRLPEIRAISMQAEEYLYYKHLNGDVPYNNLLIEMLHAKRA
# Steroidogenic factor 1 = Steroidogenic factor 1 (Homo sapiens, UniProt Q13285); assay: Counterscreen for inverse agonists of the liver receptor homolog-1 (LRH-1; NR5A2): Luminescence-based cell-based high throughput dose response assay to identify inverse agonists of the Steroidogenic Factor 1 Nuclear Receptor (SF1; NR5A1).; type: functional
# Sequence of Steroidogenic factor 1 (Q13285 whole entry): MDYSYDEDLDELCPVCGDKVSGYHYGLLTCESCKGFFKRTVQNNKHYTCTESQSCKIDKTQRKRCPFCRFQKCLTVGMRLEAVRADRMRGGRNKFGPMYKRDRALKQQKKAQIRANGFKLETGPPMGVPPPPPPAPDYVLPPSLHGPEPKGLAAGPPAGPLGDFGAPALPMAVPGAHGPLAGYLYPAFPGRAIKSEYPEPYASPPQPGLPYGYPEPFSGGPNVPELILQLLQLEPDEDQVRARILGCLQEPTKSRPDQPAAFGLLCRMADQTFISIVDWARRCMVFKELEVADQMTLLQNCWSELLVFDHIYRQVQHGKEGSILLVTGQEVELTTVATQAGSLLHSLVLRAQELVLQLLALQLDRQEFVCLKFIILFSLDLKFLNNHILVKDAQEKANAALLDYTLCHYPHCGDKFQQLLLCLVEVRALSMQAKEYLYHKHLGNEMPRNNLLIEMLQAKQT
# [8] = nonselective StAR promoter luciferase inhibitors – cell-based, luminescence, luciferase reporter, counter-screen for LRH-1 inverse agonist project, dose response (AID 651969); type: functional
# [9] = biological target: T3, Histone-lysine N-methyltransferase NSD2 (Homo sapiens, UniProt O96028); type: biochemical
# T3 sequence (O96028 whole entry): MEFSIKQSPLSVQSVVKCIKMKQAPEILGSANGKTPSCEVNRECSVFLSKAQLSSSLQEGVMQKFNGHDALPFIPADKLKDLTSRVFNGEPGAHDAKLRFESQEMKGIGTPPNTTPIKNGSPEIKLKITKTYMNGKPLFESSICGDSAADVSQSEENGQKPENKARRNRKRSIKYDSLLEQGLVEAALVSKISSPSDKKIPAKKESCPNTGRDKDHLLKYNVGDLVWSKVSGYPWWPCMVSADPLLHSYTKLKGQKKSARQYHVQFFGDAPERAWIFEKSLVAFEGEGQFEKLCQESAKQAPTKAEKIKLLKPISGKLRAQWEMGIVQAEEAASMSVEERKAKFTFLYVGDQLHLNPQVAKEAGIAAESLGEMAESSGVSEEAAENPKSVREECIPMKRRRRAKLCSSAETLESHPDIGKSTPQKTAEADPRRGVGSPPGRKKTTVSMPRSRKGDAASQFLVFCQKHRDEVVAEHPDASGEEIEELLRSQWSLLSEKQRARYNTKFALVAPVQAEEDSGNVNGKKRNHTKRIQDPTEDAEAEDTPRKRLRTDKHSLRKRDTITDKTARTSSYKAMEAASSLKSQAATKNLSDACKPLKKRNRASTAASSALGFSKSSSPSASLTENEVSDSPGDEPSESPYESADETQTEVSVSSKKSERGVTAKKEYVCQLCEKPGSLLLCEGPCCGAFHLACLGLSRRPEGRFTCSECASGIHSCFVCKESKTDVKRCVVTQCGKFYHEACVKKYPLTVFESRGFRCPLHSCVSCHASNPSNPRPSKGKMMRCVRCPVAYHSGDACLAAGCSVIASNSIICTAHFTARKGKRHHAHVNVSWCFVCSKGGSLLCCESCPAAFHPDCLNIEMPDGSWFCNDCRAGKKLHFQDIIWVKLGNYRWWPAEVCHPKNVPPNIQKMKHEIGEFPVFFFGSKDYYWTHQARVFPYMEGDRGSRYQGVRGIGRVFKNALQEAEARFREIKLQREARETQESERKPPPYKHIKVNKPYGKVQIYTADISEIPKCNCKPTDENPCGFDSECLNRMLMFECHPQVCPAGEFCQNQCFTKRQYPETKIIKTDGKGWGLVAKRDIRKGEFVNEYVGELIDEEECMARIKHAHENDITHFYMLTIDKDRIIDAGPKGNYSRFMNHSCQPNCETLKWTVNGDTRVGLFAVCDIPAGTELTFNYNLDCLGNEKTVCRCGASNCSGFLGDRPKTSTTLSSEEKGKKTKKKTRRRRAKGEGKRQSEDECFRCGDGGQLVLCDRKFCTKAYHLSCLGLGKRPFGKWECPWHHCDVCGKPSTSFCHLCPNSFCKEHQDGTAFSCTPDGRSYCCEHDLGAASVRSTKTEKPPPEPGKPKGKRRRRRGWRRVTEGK
# [10] = HPDE-C7 pancreatic duct cell viability loss – fluorescence, HTS (AID 430); type: functional, cell-based; details: Homo sapiens
# [11] = biological target: T4, Apoptotic protease-activating factor 1 (Homo sapiens, UniProt O14727); type: functional
# T4 sequence (O14727 whole entry): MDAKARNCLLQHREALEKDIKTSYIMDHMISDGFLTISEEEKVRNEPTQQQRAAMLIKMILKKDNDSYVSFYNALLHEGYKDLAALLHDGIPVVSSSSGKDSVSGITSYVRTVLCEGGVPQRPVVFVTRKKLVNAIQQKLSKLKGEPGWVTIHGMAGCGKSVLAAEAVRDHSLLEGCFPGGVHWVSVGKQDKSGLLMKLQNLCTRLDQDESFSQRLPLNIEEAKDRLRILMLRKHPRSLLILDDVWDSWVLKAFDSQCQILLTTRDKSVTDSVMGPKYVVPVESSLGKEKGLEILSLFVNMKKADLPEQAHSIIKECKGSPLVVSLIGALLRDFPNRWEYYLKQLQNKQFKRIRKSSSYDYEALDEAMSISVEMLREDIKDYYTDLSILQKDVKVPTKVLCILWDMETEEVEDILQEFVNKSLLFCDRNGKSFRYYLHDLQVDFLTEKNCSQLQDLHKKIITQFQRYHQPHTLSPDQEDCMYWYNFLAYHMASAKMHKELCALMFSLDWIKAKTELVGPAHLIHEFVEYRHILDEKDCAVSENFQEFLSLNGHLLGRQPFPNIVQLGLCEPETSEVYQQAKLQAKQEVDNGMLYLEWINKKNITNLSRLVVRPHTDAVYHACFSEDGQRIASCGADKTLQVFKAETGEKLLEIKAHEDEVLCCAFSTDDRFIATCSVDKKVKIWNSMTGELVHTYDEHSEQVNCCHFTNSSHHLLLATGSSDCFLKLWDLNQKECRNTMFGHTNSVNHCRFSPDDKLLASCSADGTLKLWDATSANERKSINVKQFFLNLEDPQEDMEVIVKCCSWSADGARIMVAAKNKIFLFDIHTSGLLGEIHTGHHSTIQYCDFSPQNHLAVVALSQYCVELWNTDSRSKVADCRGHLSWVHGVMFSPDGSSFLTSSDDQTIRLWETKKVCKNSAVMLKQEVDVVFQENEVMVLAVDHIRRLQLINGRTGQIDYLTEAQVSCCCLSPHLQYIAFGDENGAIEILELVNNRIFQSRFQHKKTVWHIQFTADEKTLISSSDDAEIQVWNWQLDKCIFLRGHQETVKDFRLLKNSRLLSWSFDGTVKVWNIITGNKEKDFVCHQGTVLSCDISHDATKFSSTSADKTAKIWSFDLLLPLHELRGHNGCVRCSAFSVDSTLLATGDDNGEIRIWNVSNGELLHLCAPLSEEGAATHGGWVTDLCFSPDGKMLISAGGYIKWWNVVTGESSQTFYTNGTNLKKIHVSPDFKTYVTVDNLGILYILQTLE
# [12] = viability loss of HPDE-C7K cells – cell-based, fluorescence, HTS, primary screen (AID 431); type: functional; details: Homo sapiens
# [13] = inhibition of ARNT PAS-B/TACC3 complex formation – biochemical, AlphaScreen, cherry-picked samples, confirmation (AID 651703); type: functional, Homo sapiens;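 note: His-tagged ARNT PAS-B domain paired with GST-TACC3 E629A dimer coactivator fragment; potency of inhibitors that break up the complex and lower AlphaScreen signal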
# [14] = reduction of Shn3 3'UTR-driven luciferase in osteoblasts – cell-based, Clone20 osteoblasts, firefly luciferase, cherry-picked, dose response (AID 624132); type: functional;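 note: firefly luciferase luminescence from reporter carrying the Shn3 3'UTR in osteoblasts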
# [15] = non-specific 3'UTR reporter inhibition in Clone20-Shn3RL – cell-based, Renilla luciferase, cherry-picked, counter-screen for Shn3 inhibitor project, dose response (AID 624133); type: functional
# [16] = biological target: DNA repair and recombination protein RAD54-like (Homo sapiens, UniProt Q92698); assay: RAD54 Holliday junction migration blockers – biochemical, fluorescence, cherry-picked samples, dose series, confirmation (AID 651657); type: functional
# Sequence of DNA repair and recombination protein RAD54-like (Q92698 whole entry): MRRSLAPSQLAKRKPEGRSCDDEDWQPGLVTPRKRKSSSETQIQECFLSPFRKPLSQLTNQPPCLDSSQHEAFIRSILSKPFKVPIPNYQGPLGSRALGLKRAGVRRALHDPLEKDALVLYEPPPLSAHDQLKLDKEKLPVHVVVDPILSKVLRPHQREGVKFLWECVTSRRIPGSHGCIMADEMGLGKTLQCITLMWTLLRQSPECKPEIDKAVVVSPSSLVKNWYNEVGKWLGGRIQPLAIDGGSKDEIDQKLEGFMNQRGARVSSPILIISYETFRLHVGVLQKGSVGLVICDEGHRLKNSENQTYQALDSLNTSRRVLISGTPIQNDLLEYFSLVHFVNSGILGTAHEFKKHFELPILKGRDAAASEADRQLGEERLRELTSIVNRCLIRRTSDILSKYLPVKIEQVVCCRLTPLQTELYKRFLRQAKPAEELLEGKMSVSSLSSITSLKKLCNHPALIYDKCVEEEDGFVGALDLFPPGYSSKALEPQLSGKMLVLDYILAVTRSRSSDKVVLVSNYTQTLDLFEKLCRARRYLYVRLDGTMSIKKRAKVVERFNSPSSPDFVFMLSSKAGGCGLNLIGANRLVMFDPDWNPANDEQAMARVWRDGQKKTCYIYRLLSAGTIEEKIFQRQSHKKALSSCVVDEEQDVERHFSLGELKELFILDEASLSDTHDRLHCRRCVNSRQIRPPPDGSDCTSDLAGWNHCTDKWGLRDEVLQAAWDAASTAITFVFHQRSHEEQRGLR
# HEK293 = assay: EBV LMP1 TES2 canonical NF-kB signalling blockers – cell-based, HEK293, luciferase, cherry-pick, dose response (AID 588343); type: functional; details: Homo sapiens
# Vero = assay: cells; type: functional; details: Chlorocebus sabaeus
# [17] = microbe, parasite or virus in culture; type: functional; details: Mycobacterium tuberculosis
# Interleukin-8 = biological target: T5, Interleukin-8 (Homo sapiens, UniProt P10145); assay: Dose Response confirmation of uHTS small molecule hits for cystic fibrosis induced NFkb Inhibitors in a PAF-induced IL8 counterscreen.; type: functional; details: read-out: IC50_Mean
# T5 sequence (P10145 whole entry): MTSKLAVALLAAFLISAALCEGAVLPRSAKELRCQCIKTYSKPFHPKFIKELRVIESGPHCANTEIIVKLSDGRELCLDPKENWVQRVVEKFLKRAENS
# [18] = loss of viability in HepG2 cells – cell-based, CellTiter-Glo, cherry-picked, cytotoxicity control for Shn3 inhibitor project, dose response (AID 624134); type: functional
compound,measurement,setting,value
Nc1nnc(SCc2ccc(F)cc2Cl)s1,IC50,[1],14.3 µM (active)
same,EC50,[2],> 53 µM (inactive)
same,IC50,[3],0.941 µM (active)
CC(=O)c1ccc(C(=O)N2CCCC(C(=O)c3ccc(Cl)cc3)C2)s1 (stereo unspecified),AC50,[4],2.51 µM (active)
CC(C)C(=O)Nc1ccc(NC(=S)NC(=O)c2ccc([N+](=O)[O-])cc2)cc1,IC50,[5],> 66 µM (inactive)
same,IC50,[6],> 66 µM (inactive)
Cc1sc2ncnc(NCC(O)c3ccc([N+](=O)[O-])cc3)c2c1C (stereo unspecified),AC50,INS1,3.56 µM (active)
same,IC50,Protein Wnt-3a,0.544 µM (active)
COc1ccc(C2Nc3ccccc3C(=O)N2c2ccccc2)cc1CSc1ccccn1 (stereo unspecified),IC50,[1],2.16 µM (active)
same,EC50,[2],> 53 µM (inactive)
same,IC50,[3],17.3 µM (active)
O=C(COc1ccc2c3c(c(=O)oc2c1)CCCC3)NCc1ccccn1,IC50,[7],35.9 µM (inactive)
same,IC50,Steroidogenic factor 1,35.9 µM (inactive)
same,IC50,[8],35.9 µM (inactive)
COCCCn1c(N)c(C(=O)NCCC(C)C)c2nc3ccccc3nc21,AC50,[9],15.9 µM (active)
same,EC50,[10],11.3 µM (active)
same,IC50,[11],46.2 µM (active)
same,EC50,[12],12 µM (active)
same,AC50,[13],74.7 µM (active)
O=C(N[C@@H]1C/C=C\C[C@H](CC(=O)N(CCO)Cc2ccccc2)C(=O)NC[C@@H](c2ccccc2)OC1=O)OCC1c2ccccc2-c2ccccc21,AC50,[14],4.5 µM (active)
same,IC50,Protein Wnt-3a,4.4 µM (active)
same,AC50,[15],4.9 µM (active)
CCCc1cc(=O)oc2cc(C)cc(OCC(=O)NC3CC3)c12,IC50,[7],1.31 µM (active)
same,IC50,Steroidogenic factor 1,0.0932 µM (active)
same,IC50,[8],35.9 µM (inactive)
Cc1ccnc(SC2CC(=O)N(c3ccccc3)C2=O)n1 (stereo unspecified),IC50,[5],> 66 µM (inactive)
same,IC50,[6],> 66 µM (inactive)
CNC(=O)C[C@H]1CC[C@@H]2[C@H](COC[C@@H](O)CN2C(=O)Nc2cccc(OC)c2)O1,AC50,[4],4.57 µM (active)
CC(N)c1csc(Nc2nncc3ccccc23)n1 (stereo unspecified),AC50,[16],28.5 µM (active)
CCOC(=O)Oc1c(OC)cc(C(=O)O[C@@H]2C[C@@H]3CN4CCc5c([nH]c6cc(OC)ccc56)[C@H]4C[C@@H]3[C@H](C(=O)OC)[C@H]2OC)cc1OC [SYROSINGOPINE],AC50,HEK293,24.6 µM (active)
same,AC50,[14],10.7 µM (active)
same,CC50,Vero,11.9 µM (active)
same,CC50,[17],24.6 µM (active)
same,IC50,Interleukin-8,> 79 µM (inactive)
same,AC50,[18],50.6 µM (active)
same,AC50,[15],22.4 µM (active)
